The SangsterLogP compilation

Experiment: method code SF-AS, from DOI: 10.1021/jm00252a008, PMID: 4598022

Structure (SMILES) | logP
CN1C(=O)/C(=C\c2ccc([N+](=O)[O-])o2)SC1=S | 1.06
CN1C(=O)SC(=CC=Cc2ccc([N+](=O)[O-])o2)C1=O | 1.4
O=C1NC(=Nc2ccccc2)SC1=Cc1ccc([N+](=O)[O-])o1 | 1.41
C/N=C1\SC(=Cc2ccc([N+](=O)[O-])o2)C(=O)N1C | 1.42
CC/N=C1\NC(=O)/C(=C/c2ccc([N+](=O)[O-])o2)S1 | 1.16
CNc1nc(=O)cc(-c2ccc([N+](=O)[O-])o2)s1 | 0.86
O=C1NC(=S)SC1=CC=Cc1ccc([N+](=O)[O-])o1 | 0.93
CC(=O)NC1=NC(=O)/C(=C\C=Cc2ccc([N+](=O)[O-])o2)S1 (stereo in doubt) | 0.95
CC(=O)N(C)C1=NC(=O)/C(=C/c2ccc([N+](=O)[O-])o2)S1 | 1.05
CCCN1C(=O)S/C(=C\c2ccc([N+](=O)[O-])o2)C1=O | 2.4
NC1=NC(=O)C(=Cc2ccc([N+](=O)[O-])o2)S1 (stereo in doubt) | 1.09
CC(C)/N=C1\NC(=O)/C(=C/c2ccc([N+](=O)[O-])o2)S1 | 1.29
CN1C(=N)S/C(=C/c2ccc([N+](=O)[O-])o2)C1=O | 1.44
CCC/N=C1\NC(=O)/C(=C/c2ccc([N+](=O)[O-])o2)S1 | 1.24
CC(=O)Nc1nc(=O)cc(-c2ccc([N+](=O)[O-])o2)s1 | 1.01
CC(=O)N(C)C1=NC(=O)/C(=C\C=C/c2ccc([N+](=O)[O-])o2)S1 | 1.21
CSC1=NC(=O)C(=Cc2ccc([N+](=O)[O-])o2)S1 (stereo in doubt) | 1.41
O=C1NC(=O)/C(=C\c2ccc([N+](=O)[O-])o2)S1 | 0.63
CC(=O)NC1=NC(=O)/C(=C/c2ccc([N+](=O)[O-])o2)S1 | 1.03

Structure (SMILES) | logP
CCN1C(=N)SC(=Cc2ccc([N+](=O)[O-])o2)C1=O | 1.44
CCCN1C(=O)/C(=C/c2ccc([N+](=O)[O-])o2)S/C1=N\C(C)=O | 1.17
CN1C(=O)S/C(=C\c2ccc([N+](=O)[O-])o2)C1=O | 1.78
O=C1NC(=S)SC1=Cc1ccc([N+](=O)[O-])o1 | 0.74
CCCN=C1SC(=Cc2ccc([N+](=O)[O-])o2)C(=O)N1CCC | 1.32
C/N=C1\NC(=O)/C(=C/c2ccc([N+](=O)[O-])o2)S1 | 1.16
CCN1C(=O)C(=Cc2ccc([N+](=O)[O-])o2)S/C1=N\C(C)=O | 1.21
C=CCN1C(=O)S/C(=C\c2ccc([N+](=O)[O-])o2)C1=O | 2.22
CCN(CC)C1=NC(=O)/C(=C/c2ccc([N+](=O)[O-])o2)S1 | 1.22
C/N=C1/NC(=O)/C(=C/C=C/c2ccc([N+](=O)[O-])o2)S1 | 1.35
O=c1cc(-c2ccc([N+](=O)[O-])o2)sc(=O)[nH]1 | 0.55
CC(=O)N=C1S/C(=C\c2ccc([N+](=O)[O-])o2)C(=O)N1C (stereo in doubt) | 1.21
CC(C)N1C(=O)S/C(=C\c2ccc([N+](=O)[O-])o2)C1=O | 2.42
CCN1C(=O)S/C(=C/c2ccc([N+](=O)[O-])o2)C1=O | 2.29
C=CCN=C1SC(=Cc2ccc([N+](=O)[O-])o2)C(=O)N1CC=C | 1.46
CN(C)c1nc(=O)cc(-c2ccc([N+](=O)[O-])o2)s1 | 0.55
CN(C)C1=NC(=O)/C(=C/c2ccc([N+](=O)[O-])o2)S1 | 1.16
CC(C)N=C1SC(=Cc2ccc([N+](=O)[O-])o2)C(=O)N1C(C)C | 1.22
